Patent publication US6737383B1, “Herbicidal oxadiazolidines” (priority 1999, dated 2004)

Experiments:
rice = assay: Test B flood test rice; type: in vivo, Oryza sativa
How it was run: (§1)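 Each value is a visual injury score relative to controls, with 10 meaning complete control and 0 no effect. Evaluation took place twelve to sixteen days after the 2-leaf-stage plants were treated and kept in the greenhouse.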

cocklebur = assay: Test B pre/postemergence cocklebur; type: in vivo, Xanthium strumarium
How it was run: (§2)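 Herbicidal effect was estimated by eye on a ten-point control scale after plants spent twelve to sixteen days in a greenhouse following soil or foliar treatment. Foliar sprays targeted plants at one to four leaves; all doses were formulated in a non-phytotoxic solvent with surfactant.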

giant foxtail = assay: Test B pre/postemergence giant foxtail; type: in vivo, Setaria faberii
How it was run: as §2

pigweed = assay: Test B pre/postemergence pigweed; type: in vivo, Amaranthus retroflexus
How it was run: as §2

crabgrass = assay: Test B pre/postemergence crabgrass; type: in vivo, Digitaria sanguinalis
How it was run: as §2

blackgrass = assay: Test B pre/postemergence blackgrass; type: in vivo, Alopecurus myosuroides
How it was run: as §2

soybean = assay: Test B pre/postemergence soybean; type: in vivo, Glycine max
How it was run: as §2

morningglory = assay: Test B pre/postemergence morningglory; type: in vivo, Ipomoea hederacea; conditions: for Plant response rating, Morningglory: scale of 0 to 10 where 0 is no effect and 10 is complete control
How it was run: as §2

sugar beet = assay: Test B pre/postemergence sugar beet; type: in vivo, Beta vulgaris
How it was run: as §2

purple nutsedge = assay: Test B pre/postemergence purple nutsedge; type: in vivo, Cyperus rotundus
How it was run: as §2

bedstraw = assay: Test B pre/postemergence bedstraw; type: in vivo, Galium aparine; conditions: Postemergence
How it was run: as §2

duck salad = assay: Test B flood test duck salad; type: in vivo, Heteranthera limosa
How it was run: as §1

smallflower flatsedge = assay: Test B flood test smallflower flatsedge; type: in vivo, Cyperus difformis
How it was run: as §1

corn = assay: Test B pre/postemergence corn; type: in vivo, Zea mays
How it was run: as §2

surinam grass = assay: Test B pre/postemergence surinam grass; type: in vivo, Brachiaria decumbens
How it was run: as §2

wild oat = assay: Test B pre/postemergence wild oat; type: in vivo, Avena fatua
How it was run: as §2

[1] = Postemergence block (flood test species), Rate 250 g/ha, scale 0 to 10
[2] = Postemergence section (flood test species), Rate 500 g/ha, scale of 0 to 10 where 0 is no effect and 10 is complete control
[3] = Rate 62 g/ha, Postemergence (flood test), scale 0 to 10, 0 no effect, 10 complete control
[4] = Rate 125 g/ha, Postemergence section (flood test species), scale 0 to 10, 0 is no effect, 10 is complete control
[5] = Postemergence, Rate 250 g/ha, scale 0 to 10
[6] = Postemergence, Rate 500 g/ha, scale of 0 to 10 where 0 is no effect and 10 is complete control
[7] = Preemergence, Rate 125 g/ha, scale of 0 to 10 where 0 is no effect and 10 is complete control
[8] = Preemergence, Rate 250 g/ha, scale 0 to 10, 0 is no effect, 10 is complete control
[9] = Preemergence, Rate 500 g/ha, scale 0 to 10, 0 is no effect, 10 is complete control
[10] = Rate 62 g/ha, Postemergence, scale 0 to 10 (0 no effect, 10 complete control)
[11] = Rate 125 g/ha, Postemergence, scale 0 to 10, 0 is no effect, 10 is complete control
[12] = Preemergence, Rate 62 g/ha, scale of 0 to 10 where 0 is no effect and 10 is complete control

SMILES: CC(C)N(C(=O)n1oc(=O)n(CC(=O)N(C)C)c1=O)c1ccc(F)cc1F [Compound 440]
- Rice plant response rating (rice; [1]): 0
- Rice plant response rating (rice; [2]): 0
- Rice plant response rating (rice; [3]): 0
- Rice plant response rating (rice; [4]): 0
- Cocklebur plant response rating (cocklebur; [5]): 0
- Cocklebur plant response rating (cocklebur; [6]): 0
- Plant response rating, Cocklebur (cocklebur; [7]): 0
- Cocklebur plant response rating (cocklebur; [8]): 0
- Cocklebur plant response rating (cocklebur; [9]): 0
- Cocklebur plant response rating (cocklebur; [10]): 0
- Cocklebur plant response rating (cocklebur; [11]): 0
- Giant foxtail plant response rating (giant foxtail; [5]): 9
- Giant foxtail plant response rating (giant foxtail; [6]): 9
- Plant response rating, Giant foxtail (giant foxtail; [12]): 6
- Plant response rating, Giant foxtail (giant foxtail; [7]): 6
- Giant foxtail plant response rating (giant foxtail; [8]): 10
- Giant foxtail plant response rating (giant foxtail; [9]): 10
- Giant foxtail plant response rating (giant foxtail; [10]): 0
- Giant foxtail plant response rating (giant foxtail; [11]): 4
- Redroot pigweed plant response rating (pigweed; [5]): 3
- Redroot pigweed plant response rating (pigweed; [6]): 4
- Plant response rating, Redroot pigweed (pigweed; [12]): 0
- Plant response rating, Redroot pigweed (pigweed; [7]): 4
- Redroot pigweed plant response rating (pigweed; [8]): 7
- Redroot pigweed plant response rating (pigweed; [9]): 10
- Redroot pigweed plant response rating (pigweed; [10]): 0
- Redroot pigweed plant response rating (pigweed; [11]): 1
- Crabgrass plant response rating (crabgrass; [5]): 9
- Crabgrass plant response rating (crabgrass; [6]): 9
- Plant response rating, Crabgrass (crabgrass; [12]): 7
- Plant response rating, Crabgrass (crabgrass; [7]): 7
- Crabgrass plant response rating (crabgrass; [8]): 10
- Crabgrass plant response rating (crabgrass; [9]): 10
- Crabgrass plant response rating (crabgrass; [10]): 1
- Crabgrass plant response rating (crabgrass; [11]): 2
- Blackgrass plant response rating (blackgrass; [5]): 4
- Blackgrass plant response rating (blackgrass; [6]): 8
- Plant response rating, Blackgrass (blackgrass; [12]): 2
- Plant response rating, Blackgrass (blackgrass; [7]): 6
- Blackgrass plant response rating (blackgrass; [8]): 10
- Blackgrass plant response rating (blackgrass; [9]): 10
- Blackgrass plant response rating (blackgrass; [10]): 0
- Blackgrass plant response rating (blackgrass; [11]): 0
- Soybean plant response rating (soybean; [5]): 6
- Soybean plant response rating (soybean; [6]): 7
- Plant response rating, Soybean (soybean; [12]): 0
- Plant response rating, Soybean (soybean; [7]): 0
- Soybean plant response rating (soybean; [8]): 0
- Soybean plant response rating (soybean; [9]): 0
- Soybean plant response rating (soybean; [10]): 5
- Soybean plant response rating (soybean; [11]): 6
- Morningglory plant response rating (morningglory; [5]): 8
- Plant response rating, Morningglory (morningglory; Preemergence, Rate 62 g/ha): 0
- Plant response rating, Morningglory (morningglory; Preemergence, Rate 125 g/ha): 0
- Morningglory plant response rating (morningglory; [8]): 0
- Morningglory plant response rating (morningglory; [9]): 0
- Morningglory plant response rating (morningglory; [10]): 2
- Morningglory plant response rating (morningglory; [11]): 8
- Sugarbeets plant response rating (sugar beet; [5]): 0
- Sugarbeets plant response rating (sugar beet; [6]): 2
- Plant response rating, Sugarbeets (sugar beet; [12]): 0
- Plant response rating, Sugarbeets (sugar beet; [7]): 0
- Sugarbeets plant response rating (sugar beet; [8]): 4
- Sugarbeets plant response rating (sugar beet; [9]): 7
- Sugarbeets plant response rating (sugar beet; [10]): 0
- Sugarbeets plant response rating (sugar beet; [11]): 0
- Nutsedge plant response rating (purple nutsedge; [5]): 0
- Nutsedge plant response rating (purple nutsedge; [6]): 0
- Plant response rating, Nutsedge (purple nutsedge; [12]): 0
- Plant response rating, Nutsedge (purple nutsedge; [7]): 0
- Nutsedge plant response rating (purple nutsedge; [8]): 0
- Nutsedge plant response rating (purple nutsedge; [10]): 0
- Nutsedge plant response rating (purple nutsedge; [11]): 0
- Bedstraw plant response rating (bedstraw; Rate 250 g/ha, scale 0 to 10): 2
- Bedstraw plant response rating (bedstraw; Rate 125 g/ha, scale 0 to 10, 0 is no effect, 10 is complete control): 0
- Ducksalad plant response rating (duck salad; [1]): 0
- Ducksalad plant response rating (duck salad; [2]): 0
- Ducksalad plant response rating (duck salad; [3]): 0
- Ducksalad plant response rating (duck salad; [4]): 0
- S. Flatsedge plant response rating (smallflower flatsedge; [1]): 0
- S. Flatsedge plant response rating (smallflower flatsedge; [2]): 0
- S. Flatsedge plant response rating (smallflower flatsedge; [3]): 0
- S. Flatsedge plant response rating (smallflower flatsedge; [4]): 0
- Corn plant response rating (corn; [5]): 0
- Corn plant response rating (corn; [6]): 0
- Plant response rating, Corn (corn; [12]): 0
- Plant response rating, Corn (corn; [7]): 0
- Corn plant response rating (corn; [8]): 0
- Corn plant response rating (corn; [9]): 0
- Corn plant response rating (corn; [10]): 0
- Corn plant response rating (corn; [11]): 0
- B. signalgrass plant response rating (surinam grass; Postemergence, Rate 250 g/ha, scale 0 to 10, 0 no effect, 10 complete control): 2
- B. signalgrass plant response rating (surinam grass; [6]): 8
- Plant response rating, B. signalgrass (surinam grass; [12]): 1
- Plant response rating, B. signalgrass (surinam grass; [7]): 4
- B. signalgrass plant response rating (surinam grass; [8]): 8
- B. signalgrass plant response rating (surinam grass; [9]): 8
- B. signalgrass plant response rating (surinam grass; [10]): 0
- B. signalgrass plant response rating (surinam grass; [11]): 0
- Wild oats plant response rating (wild oat; [5]): 0
- Wild oats plant response rating (wild oat; [6]): 5
- Plant response rating, Wild oats (wild oat; [12]): 0
- Plant response rating, Wild oats (wild oat; [7]): 5
- Wild oats plant response rating (wild oat; [8]): 9
- Wild oats plant response rating (wild oat; [9]): 9
- Wild oats plant response rating (wild oat; [10]): 0
- Wild oats plant response rating (wild oat; [11]): 0
